Source: patent USRE43327E1, “Hydrophobic polyamine analogs and methods for their use” (Aminex Therapeutics, Inc., priority 2001, dated 2012)
Where two headings read alike, the source gives them in different places.

Key:
Type in all cases: cell-based
[1] = test system: 4 cell lines (A375, MDA-MB-231, PC-3, SK-OV-3); assay: Growth inhibition with DFMO, average over 4 cell lines; settings: with DFMO
[2] = test system: PC-3; assay: Growth inhibition assay, PA alone, PC-3; settings: PA alone (no DFMO), six days, repeat determinations, read-out: Cell Line IC50 PC-3
Experimental: (§1) Medias were obtained from Mediatech, Inc. (Herdon, Va.) and serums from Gibco BRL (Gaithersburg, Md.). 50 U/ml penicillin, 50 μg/ml streptomycin and 2 mM L-glutamine (all from Bio Whittaker, Walkersville, Md.) were included in all cultures. […] When cells were cultured with polyamines or ORI compounds, 1 mM aminoguanidine (AG; Sigma) was included to inhibit serum amine oxidase activity.

[3] = test system: A375; assay: Growth inhibition assay, PA alone, A375; settings: PA alone (no DFMO), six days, repeat determinations, read-out: Cell Line IC50 A375
Experimental: as §1

[4] = test system: MDA-MB-231; assay: Growth inhibition assay, PA alone, MDA-MB-231; settings: PA alone (no DFMO), six days, repeat determinations, read-out: Cell Line IC50 MDA-MB-231
Experimental: as §1

[5] = test system: SK-OV-3; assay: Growth inhibition assay, PA alone, SK-OV-3; settings: PA alone (no DFMO), six days, repeat determinations, read-out: Cell Line IC50 SK-OV-3
Experimental: as §1

[6] = Table 3, average over cell lines, read-out: AVG. EC50
[7] = Homo sapiens, MDA-MB-231, 144 h
[8] = Table 1, average EC50 for 4 cell lines, read-out: Ave EC50 value

Row | SMILES | EC50 [1, 6] [µM] | IC50 ([2]; Homo sapiens, PC-3, 144 h) [µM] | IC50 ([3]; Homo sapiens, A-375, 144 h) [µM] | IC50 [4, 7] [µM] | IC50 ([5]; Homo sapiens, SK-OV-3, 144 h) [µM] | EC50 [1, 8] [µM] | IC50 [4] [µM] | IC50 [3] [µM] | IC50 [2] [µM] | IC50 [5] [µM]
1 | CC(C)CC(C)NCCCCC(N)C(=O)NCCCNCCCCNCCCN (single isomer, unassigned) [VA21] | 1.3 | > 100 | – | – | – | – | – | – | – | –
2 | CCCCCCCCCCCCCCCCCC(=O)NCCCC[C@@H](N)C(=O)NCCCNCCCCNCCCN [IB2] | 0.083 | > 3 | > 3 | > 3 | > 3 | – | – | – | – | –
3 | CCCCCCCC(=O)NCCCC[C@@H](N)C(=O)NCCCNCCCCNCCCN [IB7] | 11.2 | > 30 | > 30 | > 30 | > 30 | – | – | – | – | –
4 | CCCCCCC(=O)NCCCC[C@@H](N)C(=O)NCCCNCCCCNCCCN [IB8] | 3.55 | > 100 | > 100 | > 100 | > 100 | – | – | – | – | –
5 | CCCCCC(=O)NCCCC[C@@H](N)C(=O)NCCCNCCCCNCCCN [IB9] | 11.5 | > 100 | > 100 | > 100 | > 100 | – | – | – | – | –
6 | CCCC(=O)NCCC[C@@H](N)C(=O)NCCCNCCCCNCCCN [IB10] | 11.7 | > 100 | > 100 | > 100 | > 100 | 12 | – | – | – | –
7 | NCCCNCCCCNCCCNC(=O)[C@H](N)CCCCNC(=O)c1ccccc1 [IB24] | > 30 | > 30 | > 30 | > 30 | > 30 | – | – | – | – | –
8 | NCCCNCCCCNCCCNC(=O)[C@H](N)CCCCNC(=O)c1ccco1 [IB25] | – | > 30 | > 30 | – | > 30 | – | – | – | – | –
9 | NCCCNCCCCNCCCNC(=O)[C@H](N)CCCCNC(=O)c1ccc(-c2ccccc2)cc1 [IB26] | 0.955 | > 100 | – | > 100 | > 100 | – | – | – | – | –
10 | NCCCNCCCCNCCCNC(=O)[C@H](N)CCCCNC(=O)C(c1ccccc1)c1ccccc1 [IB29] | – | > 100 | – | > 100 | > 70 | – | – | – | – | –
11 | NCCCNCCCCNCCCNC(=O)[C@H](N)CCCCNC(=O)C12CC3CC(CC(C3)C1)C2 [IB30] | 1.24 | – | – | > 100 | – | – | 84.4 | – | – | –
12 | NCCCNCCCCNCCCNC(=O)[C@H](N)CCCNC(=O)C1CCCCC1 [IB32] | – | > 100 | > 100 | > 100 | > 100 | 3.6 | – | – | – | –
13 | CC(C)C(=O)NCCCC[C@@H](N)C(=O)NCCCNCCCCNCCCN [IB33] | 8.58 | > 100 | > 100 | > 100 | > 100 | – | – | – | – | –
14 | CC(C)(C)C(=O)NCCCC[C@@H](N)C(=O)NCCCNCCCCNCCCN [IB34] | 8.29 | > 100 | > 100 | > 100 | > 100 | – | – | – | – | –
15 | CC(C)(C)CC(=O)NCCCC[C@@H](N)C(=O)NCCCNCCCCNCCCN [IB36] | 26.9 | > 100 | > 100 | > 100 | > 100 | – | – | – | – | –
16 | NCCCNCCCCNCCCNC(=O)[C@H](N)CCCCNC(=O)CC1CC2CCC1C2 (stereo partly shown) [IB37] | 35.1 | > 100 | 19.8 | > 100 | 18.3 | – | – | – | – | –
17 | CC(C)[C@@H]1CC[C@@H](C)C[C@H]1OCC(=O)NCCCC[C@@H](N)C(=O)NCCCNCCCCNCCCN [IB38] | 13.4 | 28 | 21.3 | 63.9 | 60.1 | – | – | – | – | –
18 | NCCCNCCCCNCCCNC(=O)[C@@H](N)CCCCNCC1CCCCC1 [IVA27] | 4.69 | – | – | – | – | – | > 100 | > 100 | > 100 | > 100
19 | CCCCNCCCC[C@@H](N)C(=O)NCCCNCCCCNCCCN [IVB3] | 2.2 | > 100 | > 100 | > 100 | > 100 | – | – | – | – | –
20 | CCCCCCNCCCC[C@@H](N)C(=O)NCCCNCCCCNCCCN [IVB5] | 0.868 | > 100 | > 100 | > 100 | > 100 | – | – | – | – | –
21 | CCCCCCCNCCCC[C@@H](N)C(=O)NCCCNCCCCNCCCN [IVB6] | 0.365 | > 100 | > 100 | > 100 | > 100 | – | – | – | – | –
22 | CC(C)CCNCCCC[C@@H](N)C(=O)NCCCNCCCCNCCCN [IVB21] | 1.52 | > 100 | > 100 | > 100 | > 100 | – | – | 71 | – | –
23 | CC(C)(C)CCNCCCC[C@@H](N)C(=O)NCCCNCCCCNCCCN [IVB22] | 1.33 | > 100 | > 100 | > 100 | > 100 | – | – | – | – | –
24 | CC(C)CNCCCC[C@@H](N)C(=O)NCCCNCCCCNCCCN [IVB23] | 1.79 | > 100 | > 100 | > 100 | > 100 | – | – | – | – | –
25 | CC(C)(C)CNCCCC[C@@H](N)C(=O)NCCCNCCCCNCCCN [IVB24] | 3.14 | – | > 100 | > 100 | > 100 | – | – | 84.4 | – | –
26 | NCCCNCCCCNCCCNC(=O)[C@H](N)CCCCNCC1CC2C=CC1C2 (stereo partly shown) [IVB25] | 0.939 | > 100 | – | > 100 | – | – | 61 | – | – | –
27 | NCCCNCCCCNCCCNC(=O)[C@H](N)CCCCNCC1CCCCC1 [IVB27] | 0.414 | > 100 | – | > 100 | – | – | – | – | – | –
28 | NCCCNCCCCNCCCNC(=O)[C@H](N)CCCCNCc1ccc(-c2ccccc2)cc1 [IVB33] | – | > 100 | – | > 100 | 72.9 | – | – | – | – | –
